Data reported in patent US11479802B2, “Assays for screening activity of modulators of members of the hydroxy steroid (17-beta) dehydrogenase (HSD17B) family” (Regeneron Pharmaceuticals, Inc., priority 2017, dated 2022).

Biological target: T1, human HSD17B13 (Homo sapiens, UniProt Q7Z5P4)
T1 sequence (Q7Z5P4 20-300): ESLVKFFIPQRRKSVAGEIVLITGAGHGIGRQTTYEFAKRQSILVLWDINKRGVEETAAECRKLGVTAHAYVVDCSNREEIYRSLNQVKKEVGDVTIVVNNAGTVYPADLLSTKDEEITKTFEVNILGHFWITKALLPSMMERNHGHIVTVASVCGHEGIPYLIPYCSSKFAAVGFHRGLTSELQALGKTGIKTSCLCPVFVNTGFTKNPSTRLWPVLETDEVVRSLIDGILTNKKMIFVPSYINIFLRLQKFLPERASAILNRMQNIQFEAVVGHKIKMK
Test: Substrate screening of steroid and bioactive lipid libraries against purified recombinant HSD17B13 (NADH-linked luciferase assay)
Assay type: biochemical
Settings: for HSD17B13 Enzymatic Activity Relative Light Units: 500 μM NAD+, 100 ng enzyme, 3 hours at 23° C.; for HSD17B13 Enzymatic Activity Percent Estradiol Control: normalized to 50 μM estradiol after subtraction of 5% DMSO
Protocol: To understand the functional consequences of premature truncation of the HSD17B13 protein due to rs72613567:TA (the associated variant, rs72613567, is an insertion of an adenine adjacent to the donor splice site of exon six (TA allele)), the enzymatic activity of isoforms A and D was evaluated in vitro using recombinant protein and nicotinamide […] dinucleotide as cofactor. Reactions were performed in a final volume of 40 μl of assay buffer (0.2 M Tris-HCl, pH 7.5) which contained 500 μM NAD^+, 5 μM bioactive lipid or 50 μM steroid (all in a final concentration of 5% DMSO), and 100 ng of recombinant human HSD17B13. Reactions were incubated for 3 hours, at 23° C., after which an equal volume detection reagent was added. Following a 1 hour incubation at 23° C., the relative light units (RLUs) were measured on an Envision Plate Reader (Perkin Elmer). Raw RLU values were normalized as percent of control (50 μM estradiol) following subtraction of negative control (5% DMSO) using the following formula: Percent of control (POC)=100×(Sample (RLU)−Negative CTRLaverage)/(Positive CTRLaverage−Negative CTRLaverage).

[1] = Bioactive Lipid Library, 5 μM bioactive lipid (Estradiol Control 50 μM)
[2] = Bioactive Lipid Library, 5 μM bioactive lipid

SMILES	HSD17B13 Enzymatic Activity Relative Light Units [1] [RLU]	HSD17B13 Enzymatic Activity Percent Estradiol Control [2] [%]	HSD17B13 Enzymatic Activity Relative Light Units (Steroid Library, 50 μM steroid) [RLU]	HSD17B13 Enzymatic Activity Percent Estradiol Control (Steroid Library, 50 μM steroid) [%]
CCCCCC(=O)CC[C@@H]1[C@H](C/C=C\CCCC(=O)O)[C@@H](O)C[C@H]1O [8-iso-13,14-dihydro-15-keto Prostaglandin F2α]	212520	−5.58	–	–
CCCCCC(=O)/C=C/[C@H]1C(O)CC(=O)[C@H]1C/C=C\CCCC(=O)O (some centres unmarked) [8-iso-15-keto Prostaglandin E2]	262160	−1.65	–	–
CCCCCC(=O)/C=C/[C@@H]1[C@H](C/C=C\CCCC(=O)O)[C@@H](O)C[C@H]1O [8-iso-15-keto Prostaglandin F2α]	312360	2.31	–	–
CCCCC/C=C\C/C=C\C[C@@H](O)/C=C/C=C\CCCC(=O)O [9(R)-HETE]	1656640	101.86	–	–
CCCCC/C=C\C=C\[C@H](O)CCCCCCCC(=O)O [9(R)-HODE]	413280	9.40	–	–
CC/C=C\C/C=C\C/C=C\C[C@H](O)/C=C/C=C\CCCC(=O)O [9(S)-HEPE]	564200	20.63	–	–
CCCCC/C=C\C/C=C\C[C@H](O)/C=C/C=C\CCCC(=O)O [9(S)-HETE]	497640	15.68	–	–
CCCCC/C=C\C=C\[C@@H](O)CCCCCCCC(=O)O [9(S)-HODE]	539560	18.79	–	–
CC/C=C\C/C=C\C=C\[C@@H](O)CCCCCCCC(=O)O [9(S)-HOTrE]	586800	22.31	–	–
CCCCC/C=C\C=C\[C@H](CCCCCCCC(=O)O)OO [9(S)-HpODE]	219240	−5.03	–	–
CCCCCCCC/C=C(\CCCCCCCC(=O)O)[N+](=O)[O-] [9-Nitrooleate]	31600	−22.16	–	–
CCCCC/C=C\C=C\C(=O)CCCCCCCC(=O)O [9-OxoODE]	359280	5.39	–	–
CCCCCCCC/C(=C\CCCCCCCC(=O)O)[N+](=O)[O-] [10-Nitrooleate]	28200	−22.42	–	–
CCCCC/C=C\C[C@H]1O[C@H]1C/C=C\C/C=C\CCCC(=O)NCCO [11(12)-EET Ethanolamide]	440800	8.74	–	–
CCCCC/C=C\C=C\[C@H](O)CCCCCCCCCC(=O)O [11(R)-HEDE]	1674200	103.16	–	–
CC/C=C\C/C=C\C=C\[C@H](O)C/C=C\C/C=C\CCCC(=O)O [11(R)-HEPE]	940920	48.64	–	–
CCCCC/C=C\C=C\[C@H](O)C/C=C\C/C=C\CCCC(=O)O [11(R)-HETE]	1064120	57.80	–	–
CCCCC/C=C\C=C\[C@@H](O)CCCCCCCCCC(=O)O [11(S)-HEDE]	1056440	57.23	–	–
CC/C=C\C/C=C\C=C\[C@@H](O)C/C=C\C/C=C\CCCC(=O)O [11(S)-HEPE]	1525600	92.11	–	–
CCCCC/C=C\C=C\[C@@H](O)C/C=C\C/C=C\CCCC(=O)O [11(S)-HETE]	696400	30.46	–	–
[2H]C([2H])(/C=C\C[C@H]1[C@@H](O)CC(=O)O[C@@H]1/C=C/[C@@H](O)CCCCC)C([2H])([2H])CC(=O)O [11-dehydro Thromboxane B2-d4]	366280	3.11	–	–
CCCCCC(O)C=CC1OC(=O)CC(O)C1CC=CCCCC(=O)O (centres unmarked) [11-dehydro Thromboxane B2]	349160	5.22	–	–

SMILES	HSD17B13 Enzymatic Activity Relative Light Units [1] [RLU]	HSD17B13 Enzymatic Activity Percent Estradiol Control [2] [%]	HSD17B13 Enzymatic Activity Relative Light Units (Steroid Library, 50 μM steroid) [RLU]	HSD17B13 Enzymatic Activity Percent Estradiol Control (Steroid Library, 50 μM steroid) [%]
CC/C=C\C[C@H](O)/C=C/[C@H]1OC(=O)C[C@H](O)[C@@H]1C/C=C\CCCC(=O)O [11-dehydro Thromboxane B3]	322480	3.11	–	–
CCCCCC(O)C=CC1OC(=O)CC(O)C1CC=CCC(=O)O (centres unmarked) [11-dehydro-2,3-dinor Thromboxane B2]	183120	−7.90	–	–
C[C@]12CC[C@@H](O)C[C@@H]1CC[C@@H]1[C@@H]2[C@@H](O)C[C@]2(C)C(=O)CC[C@@H]12 [11beta-Hydroxyandrosterone]	–	–	224720	1.12
CCCCCC(=O)CC[C@@H]1[C@@H](C/C=C\CCCC(=O)O)[C@@H](O)C[C@@H]1O [11β-13,14-dihydro-15-keto Prostaglandin F2α]	310000	2.13	–	–
CCCCC(C)(O)C/C=C/[C@H]1[C@@H](O)CC(=O)[C@@H]1CCCCCCC(=O)OC (stereo partly drawn) [11β-Misoprostol]	331200	3.80	–	–
CCCCC[C@H](O)/C=C/[C@H]1[C@@H](O)CC(=O)[C@@H]1C/C=C\CCCC(=O)O [11β-Prostaglandin E2]	354840	5.67	–	–
CCCCC/C=C\C[C@@H](O)/C=C/C=C\C/C=C\CCCC(=O)O [12(R)-HETE]	1932320	122.36	–	–
CCCCC/C=C\C[C@@H](/C=C/C=C\C/C=C\CCCC(=O)O)OO [12(S)-HpETE]	199760	−6.47	–	–
CCCCCCCC[C@@H](O)C=CC=CC=C[C@@H](O)CCCC(=O)O [12-epi Leukotriene B3]	481880	15.71	–	–
CCCCC/C=C\C[C@H](O)/C=C/C=C/C=C\[C@@H](O)CCCC(=O)O [12-epi Leukotriene B4]	389240	8.39	–	–
CCCCC[C@@H](O)/C=C/C=C\CCCCCCCC(=O)O [13(R)-HODE]	1105960	60.91	–	–
CCCCC[C@H](O)/C=C/C=C\CCCCCCCC(=O)O [13(S)-HODE]	792800	37.62	–	–
CCCCC[C@H](O)/C=C/C=C\C/C=C\CCCCC(=O)O [13(S)-HOTrE(γ)]	458840	12.79	–	–
CC/C=C\C[C@H](O)/C=C/C=C\CCCCCCCC(=O)O [13(S)-HOTrE]	528240	17.95	–	–
CCCCC[C@@H](/C=C/C=C\CCCCCCCC(=O)O)OO [13(S)-HpODE]	183040	−7.72	–	–
CCCCC[C@@H](/C=C/C=C\C/C=C\CCCCC(=O)O)OO [13(S)-HpOTrE(γ)]	268840	−1.34	–	–
CC/C=C\C[C@@H](/C=C/C=C\CCCCCCCC(=O)O)OO [13(S)-HpOTrE]	35320	−18.70	–	–
O=C(O)CCCC=C1CC2CC(O)C(C#CC(O)C3CCCCC3)C2C1 (centres unmarked) [13,14-dehydro-15-cyclohexyl Carbaprostacyclin]	356360	5.79	–	–
C[C@@H](O)CCC[C@H](O)CC[C@H]1[C@H](O)CC(=O)[C@@H]1CCCCCCC(=O)O [13,14-dihydro-19(R)-hydroxy Prostaglandin E1]	337040	4.26	–	–
CC/C=C\C[C@H]1C(=O)C=C[C@@H]1CCCCCCCC(=O)O [13-epi-12-oxo Phytodienoic Acid]	320640	2.97	–	–
CCCCC[C@H]1O[C@H]1C/C=C\C/C=C\C/C=C\CCCC(=O)NCCO [14(15)-EET Ethanolamide]	428760	7.83	–	–
